# Reference: patent US6331555A, “Treatment of platelet derived growth factor related disorders such as cancers” (priority 1999, dated 2001)
# Like-named read-outs stand apart in the source and are kept apart here.
# What was measured:
# [1] = in vivo
# Text: Many cancer therapeutics are cytotoxic in nature and have profound effects on blood cells resulting in cytopenia.
# WEHI-164.13 cells = experiment: CTL generation in tumor-bearing mice (MLTC); type: in vivo, mouse; set-up: CTL activity: key to the marks not given beside the values; conditions: 20 mg/kg/day
# Protocol: BALB/c mice received SC implants of syngeneic WEHI-164.13 fibrosarcoma cells on day 0. […] On day 17, the animals were sacrificed and their spleens were removed. The spleen cells were assayed in vitro for responses to alloantigens and mitogens.
# The spleen cells were also assayed for the generation of WEHI-164.13-specific cytotoxic T-lymphocytes (CTL) in the mixed lymphocyte tumor cell culture (MLTC). Spleen cells from untreated tumor-bearing animals mounted a vigorous CTL response (44% specific lysis at E:T=50:1). This response was inhibited almost completely in animals receiving the vehicle alone (13% specific lysis). […] (Walia, et al., Proc. Soc. Exp. Biol. Med., 192:177-200, 1989.)
# [2] = mouse, in vivo
# Protocol: (§1) Plasma was prepared and frozen in liquid nitrogen. Tissues and organs were resected and immediately frozen in liquid nitrogen. After the addition of an internal standard, plasma samples were acidified with HCl and extracted with acetonitrile. The acetonitrile fraction was evaporated to dryness in a vacuum centrifuge with heating and redissolved in methanol. Tissue and organ samples were homogenized according to the weight ratio of 1:5 (w:v) in 50 mM Tris-HCl, pH 7.4, at 20,000 rev/min, using a tissue homogenizer (Brinkmann Polytron Model PT3000). After the addition of an internal standard, the homogenate was acidified with HCl and then extracted with acetonitrile. The acetonitrile fraction was then extracted with an equal volume of diethyl ether. The ether fraction was evaporated to dryness in a vacuum centrifuge with heating and redissolved in methanol.
# Samples for HPLC analysis were injected onto a Hewlett Packard Hypersil 5-μm C18 cartridge column (100×4.6 mm). The mobile phase was methanol:35 mM KH2 PO4 (pH 4.5) 55:45 containing 4 mM triethylamine. The flow rate was 1.2 mL/min. The compounds were monitored by UV absorption at 254 nm using a Hewlett-Packard diode-array detector (HP Model 1090). Plasma and tissue concentrations were determined from standard curves using peak area for quantitation. […] The internal standard used was 5-methyl-pyrazole-4-carboxylic acid-(4-trifluoromethyl)-anilide.
# Table XXII. […] Plasma and brain samples were prepared and analyzed by HPLC as described in Appendix 6. All results were calculated by the method of internal standardization. NT= not tested, ND= not detected.
# A549 = experiment: Tumor cell line growth; type: cell-based; conditions: Homo sapiens, A549, 96 h; lung, 4 days
# Protocol: (§2) The assay measures protein content of acid-fixed cells using the counterion binding dye sulforhodamine B (SRB, Sigma). […] For other cell lines, the cells (2000 cells/well in 100 μL) were introduced into wells immediately after dispensing the drug solutions. After 4 days (37° C., 5% CO2) the monolayers were washed 3 times with PBS and fixed with 200 μL ice-cold 10% TCA (Fisher Scientific), and kept at 4° C. for 60 min. The TCA was removed and the fixed monolayers were washed 5 times with tap water and allowed to dry completely at room temperature on absorbent paper. The cellular protein was stained for 10 min with 100 μL 0.4% SRB dissolved in 1% acetic acid. After 5 washes with tap water, the dye was solubilized in 10 mM Tris base (100 μL per well) and absorbance read at 570 nm on a Dynatech plate reader model MR5000. Growth inhibition data are expressed as a percentage of absorbance detected in control wells which were treated with 0.4% DMSO alone. DMSO controls were not different from cells grown in regular growth medium. IC50 values were determined using a four parameter curve fit function.
# (§3) For K562, DlB, L1210, 7TDl, T27A, and Colo320 DM cells, an MTT assay was used to assess cell growth. […] The cells were incubated at 37° C. for 4 days in a humidified 7% CO2 atmosphere. At the end point, […] of MTT (5 mg/mL in PBS, Sigma) was added to each well. The plates were incubated at 37° C. for 4 hr followed by addition of […] of solubilization solution (20% w/v of SDS in 50% N, N-dimethylformamide, pH 4.7) to each well. The plates were incubated overnight in a sealed container with a humidified atmosphere. The absorbance was determined at 570 nm wavelength with a reference wavelength of 630 nm using an ELISA plate reader.
# Calu-6 = experiment: Tumor cell line growth; type: cell-based; conditions: Homo sapiens, Calu-6, 96 h; lung, 4 days
# Protocol: as §2, §3
# Calu-3 = experiment: Tumor cell line growth; type: cell-based; conditions: Homo sapiens, Calu-3, 96 h; lung, 4 days
# Protocol: as §2, §3
# ZR 75-1 = experiment: Tumor cell line growth; type: cell-based; conditions: Homo sapiens, ZR-75-1, 96 h; breast, 4 days
# Protocol: as §2, §3
# ZR75-30 = experiment: Tumor cell line growth; type: cell-based; conditions: Homo sapiens, ZR-75-30, 96 h; breast, 4 days
# Protocol: as §2, §3
# A431 = experiment: Tumor cell line growth; type: cell-based; conditions: Homo sapiens, A-431, 96 h; epidermoid, 4 days
# Protocol: as §2, §3
# Ovcar3 = experiment: Tumor cell line growth; type: cell-based; conditions: Homo sapiens, OVCAR-3, 96 h; ovarian, 4 days
# Protocol: as §2, §3
# DU145 = experiment: Tumor cell line growth; type: cell-based; conditions: Homo sapiens, DU-145, 96 h; prostate, 4 days
# Protocol: as §2, §3
# SF767T = experiment: Tumor cell line growth; type: cell-based; conditions: Homo sapiens
# Protocol: as §2, §3
# Colo 320DM = experiment: Tumor cell line growth; type: cell-based; conditions: Homo sapiens, 96 h, colon, 4 days
# Protocol: as §2, §3
# U1240 = experiment: Tumor cell line growth; type: cell-based; conditions: 96 h; glioma, 4 days
# Protocol: as §2, §3
# SF763 = experiment: Tumor cell line growth; type: cell-based
# Protocol: as §2, §3
# PA-1 = experiment: Tumor cell line growth; type: cell-based; conditions: Homo sapiens, PA-1, 96 h; ovarian, 4 days
# Protocol: as §2, §3
# SF767 = experiment: Tumor cell line growth; type: cell-based
# Protocol: as §2, §3
# [3] = Ex vivo conversion of A10 to B11 in rat plasma
# Protocol: as §1
# Samples for HPLC analysis were injected onto a Hewlett Packard Hypersil 5-μm C18 cartridge column (100×4.6 mm). The mobile phase was methanol:35 mM KH2 PO4 (pH 4.5) 55:45 containing 4 mM triethylamine. The flow rate was 1.2 mL/min. The compounds were monitored by UV absorption at 254 nm using a Hewlett-Packard diode-array detector (HP Model 1090). Plasma and tissue concentrations were determined from standard curves using peak area for quantitation. […]
structure (smiles),measurement,setting,value
"Cc1oncc1C(=O)Nc1ccc(C(F)(F)F)cc1 [Compound A10, 5-methylisoxazole-4 carboxylic acid-(4-trifluromethyl)-anilide]",effects on blood cell,[1],No effects on blood cell were observed
same,"CTL response, specific lysis","WEHI-164.13 cells; vehicle 13%, untreated 44%",78%
same,CTL activity,WEHI-164.13 cells; Tumor stimulus,++
same,"plasma concentration, single dose",[2]; 20 mg/kg,not detected
same,"plasma concentration, single dose",[2]; 40 mg/kg,not detected
same,IC50,A549,118 µM
same,IC50,Calu-6,70 µM
same,IC50,Calu-3,> 400 µM
same,IC50,ZR 75-1,355 µM
same,IC50,ZR75-30,300 µM
same,IC50,A431,34 µM
same,IC50,Ovcar3,> 100 µM
same,IC50,DU145,> 100 µM
same,IC50,"SF767T; 96 h, glioma, 4 days, read-out: IC50",3 µM
same,IC50,"SF767T; PDGF-R expression ++, read-out: SRB",3 µM
same,IC50,Colo 320DM,34 µM
same,IC50,U1240,250 µM
same,IC50,"SF763; SF763, 96 h, glioma, 4 days, read-out: IC50",110 µM
same,IC50,"SF763; SF763, PDGF-R expression -, read-out: SRB",> 100 µM
same,IC50,PA-1,40 µM
same,IC50,"SF767; SF767, 96 h, glioma, 4 days, read-out: IC50",87 µM
same,IC50,"SF767; SF767, PDGF-R expression -, read-out: SRB",100 µM
same,time of complete conversion to B11,"[3]; 37° C., rat plasma",≤ 2 h
same,conversion to B11 in heat-inactivated plasma,"[3]; rat, 15 min at 60° C.",does not occur
